{"source": "paper PMC5221612", "about": "(Journal of the American Chemical Society, 2016)", "key": {"[1]": {"system": "GT-1a NS3/4A protease with R123T/I132L/D168Q (1a3a)", "assay": "Enzyme inhibition assay, chimeric 1a3a NS3/4A protease", "assay_type": "biochemical, Hepatitis C virus", "conditions": "1a3a chimera vs GT-1 WT"}, "GT-1 HCV NS3/4A protease": {"target": "GT-1 HCV NS3/4A protease", "conditions": "read-out: Ki against GT-1 NS3/4A protease; GT-1a wild type; cited from earlier work"}, "GT-3 HCV NS3/4A protease [2]": {"system": "GT-3 HCV NS3/4A protease", "assay": "biochemical", "parameters": "species or system Hepatitis C virus genotype 3a", "conditions": "for fold change (FC) in Ki, GT-3 relative to GT-1: GT-3 Ki / GT-1 Ki; for loss in affinity in GT-3 relative to GT-1: GT-3 vs GT-1"}, "GT-3 HCV NS3/4A protease [3]": {"target": "GT-3 HCV NS3/4A protease (Hepatitis C virus genotype 3a, UniProt Q81258)", "assay": "biochemical"}, "[4]": {"system": "GT-1a NS3/4A protease with D168Q", "assay_type": "biochemical, Hepatitis C virus genotype 1a", "conditions": "GT-1a D168Q vs GT-1 WT protease"}, "[5]": {"system": "HCV GT-3 subgenomic replicon", "conditions": "viral subgenomic replicon models; range over the named PIs; cited from earlier work"}, "[6]": {"target": "GT-1a NS3/4A protease with D168Q (Hepatitis C virus genotype 1a, UniProt P27958, D1194Q)", "assay_type": "biochemical", "conditions": "GT-1a D168Q"}}, "note": "Like-named read-outs stand apart in the source and are kept apart here.", "data": [{"molecule": "C=C[C@@H]1C[C@]1(NC(=O)[C@@H]1C[C@@H](Oc2ncc(OC)c3ccc(Cl)cc23)CN1C(=O)[C@@H](NC(=O)OC(C)(C)C)C(C)(C)C)C(=O)NS(=O)(=O)C1CC1", "note": "[ASV, asunaprevir]", "values": [{"measurement": "loss in potency, R123T/I132L/D168Q (1a3a) relative to GT-1 WT", "setting": "[1]", "value": "2–3 orders of magnitude"}, {"measurement": "Ki", "setting": "GT-1 HCV NS3/4A protease", "value": 2.7, "unit": "nM"}, {"measurement": "fold change (FC) in Ki, GT-3 relative to GT-1", "setting": "GT-3 HCV NS3/4A protease [2]", "value": 975, "unit": "fold"}, {"measurement": "Ki in GT-3 (in words)", "setting": "GT-3 HCV NS3/4A protease [3]", "value": "low to submicromolar"}, {"measurement": "fold change (loss) in potency, D168Q relative to GT-1 WT", "setting": "[4]", "value": 72, "unit": "fold"}]}, {"molecule": "CC(C)(C)OC(=O)N[C@H]1CCCCC/C=C\\[C@@H]2C[C@@]2(C(=O)NS(=O)(=O)C2CC2)NC(=O)[C@@H]2C[C@@H](OC(=O)N3Cc4cccc(F)c4C3)CN2C1=O", "note": "[DAN, danoprevir]", "values": [{"measurement": "loss in activity against GT-3 compared to GT-1", "setting": "[5]", "value": "140- to 1500 fold"}, {"measurement": "loss in potency, R123T/I132L/D168Q (1a3a) relative to GT-1 WT", "setting": "[1]", "value": "2–3 orders of magnitude"}, {"measurement": "Ki", "setting": "GT-1 HCV NS3/4A protease", "value": 1, "unit": "nM"}, {"measurement": "fold change (FC) in Ki, GT-3 relative to GT-1", "setting": "GT-3 HCV NS3/4A protease [2]", "value": 878, "unit": "fold"}, {"measurement": "Ki in GT-3 (in words)", "setting": "GT-3 HCV NS3/4A protease [3]", "value": "low to submicromolar"}, {"measurement": "fold change (loss) in potency, D168Q relative to GT-1 WT", "setting": "[4]", "value": 30, "unit": "fold"}]}, {"molecule": "CC[C@@H]1C[C@]1(NC(=O)[C@@H]1C[C@@H](Oc2cc(-c3csc(NC(C)C)n3)nc3c(Cl)c(OCCN4CCOCC4)ccc23)CN1C(=O)[C@@H](NC(=O)O[C@@H]1C[C@@H]2C[C@@H]2C1)C(C)(C)C)C(=O)O", "note": "[GS-9451]", "values": [{"measurement": "loss in activity against GT-3 compared to GT-1", "setting": "[5]", "value": "140- to 1500 fold"}]}, {"molecule": "COc1ccc2nc3c(nc2c1)O[C@@H]1C[C@H]2C(=O)N[C@]4(C(=O)NS(=O)(=O)C5(C)CC5)C[C@H]4/C=C/CCCCC[C@H](NC(=O)O[C@@H]4CCC[C@H]4CCCCC3)C(=O)N2C1", "note": "[MK-6325]", "values": [{"measurement": "loss in potency, R123T/I132L/D168Q (1a3a) relative to GT-1 WT", "setting": "[1]", "value": "2–3 orders of magnitude"}, {"measurement": "Ki", "setting": "GT-1 HCV NS3/4A protease", "value": 0.1, "unit": "nM"}, {"measurement": "loss in affinity in GT-3 relative to GT-1", "setting": "GT-3 HCV NS3/4A protease [2]", "value": "2–3 orders of magnitude"}, {"measurement": "Ki", "setting": "GT-3 HCV NS3/4A protease [3]; read-out: Ki against GT-3 NS3/4A protease, GT-3a", "value": 31, "unit": "nM"}, {"measurement": "inhibition constant against D168Q (in words)", "setting": "[6]", "value": "subnanomolar"}, {"measurement": "fold change (loss) in potency, D168Q relative to GT-1 WT", "setting": "[4]", "value": 4, "unit": "fold"}]}, {"molecule": "CC[C@@H]1C[C@]1(NC(=O)[C@@H]1C[C@@H]2CN1C(=O)[C@H](C(C)(C)C)NC(=O)OCC(C)(C)CCCCc1cccc3c1CN(C3)C(=O)O2)C(=O)NS(=O)(=O)C1CC1", "note": "[VAN, vaniprevir]", "values": [{"measurement": "loss in potency, R123T/I132L/D168Q (1a3a) relative to GT-1 WT", "setting": "[1]", "value": "2–3 orders of magnitude"}, {"measurement": "Ki", "setting": "GT-1 HCV NS3/4A protease", "value": 0.7, "unit": "nM"}, {"measurement": "fold change (FC) in Ki, GT-3 relative to GT-1", "setting": "GT-3 HCV NS3/4A protease [2]", "value": 533, "unit": "fold"}, {"measurement": "Ki in GT-3 (in words)", "setting": "GT-3 HCV NS3/4A protease [3]", "value": "low to submicromolar"}, {"measurement": "fold change (loss) in potency, D168Q relative to GT-1 WT", "setting": "[4]", "value": 44, "unit": "fold"}]}, {"molecule": "CC(C)(C)NC(=O)N[C@H](C(=O)N1C[C@H]2[C@@H]([C@H]1C(=O)NC(CC1CCC1)C(=O)C(N)=O)C2(C)C)C(C)(C)C", "note": "(stereo partly drawn) [boceprevir]", "values": [{"measurement": "Ki", "setting": "GT-1 HCV NS3/4A protease", "value": 33, "unit": "nM"}, {"measurement": "fold change (FC) in Ki, GT-3 relative to GT-1", "setting": "GT-3 HCV NS3/4A protease [2]", "value": 2.2, "unit": "fold"}, {"measurement": "Ki", "setting": "GT-3 HCV NS3/4A protease [3]", "value": 71, "unit": "nM"}, {"measurement": "fold change (loss) in potency, D168Q relative to GT-1 WT", "setting": "[4]", "value": 0.7, "unit": "fold"}]}, {"molecule": "C=C[C@@H]1C[C@]1(NC(=O)[C@@H]1C[C@@H]2CN1C(=O)[C@H](C(C)(C)C)NC(=O)O[C@@H]1C[C@H]1CCCCCc1nc3ccc(OC)cc3nc1O2)C(=O)NS(=O)(=O)C1CC1.O", "note": "[grazoprevir]", "values": [{"measurement": "loss in activity against GT-3 compared to GT-1", "setting": "[5]", "value": "140- to 1500 fold"}, {"measurement": "loss in potency, R123T/I132L/D168Q (1a3a) relative to GT-1 WT", "setting": "[1]", "value": "2–3 orders of magnitude"}, {"measurement": "Ki", "setting": "GT-1 HCV NS3/4A protease", "value": 0.1, "unit": "nM"}, {"measurement": "loss in affinity in GT-3 relative to GT-1", "setting": "GT-3 HCV NS3/4A protease [2]", "value": "2–3 orders of magnitude"}]}, {"molecule": "COc1ccc2c(O[C@@H]3C[C@H]4C(=O)N[C@]5(C(=O)NS(=O)(=O)C6CC6)C[C@H]5/C=C\\CCCCN(C)C(=O)[C@@H]4C3)cc(-c3nc(C(C)C)cs3)nc2c1C", "note": "[simeprevir]", "values": [{"measurement": "loss in activity against GT-3 compared to GT-1", "setting": "[5]", "value": "140- to 1500 fold"}]}, {"molecule": "CCC[C@H](NC(=O)[C@@H]1[C@H]2CCC[C@H]2CN1C(=O)[C@@H](NC(=O)[C@@H](NC(=O)c1cnccn1)C1CCCCC1)C(C)(C)C)C(=O)C(=O)NC1CC1", "note": "[telaprevir]", "values": [{"measurement": "Ki", "setting": "GT-1 HCV NS3/4A protease", "value": 33, "unit": "nM"}, {"measurement": "fold change (FC) in Ki, GT-3 relative to GT-1", "setting": "GT-3 HCV NS3/4A protease [2]", "value": 8, "unit": "fold"}, {"measurement": "Ki", "setting": "GT-3 HCV NS3/4A protease [3]", "value": 266, "unit": "nM"}, {"measurement": "fold change (loss) in potency, D168Q relative to GT-1 WT", "setting": "[4]", "value": 1.2, "unit": "fold"}]}]}
